Results: ChEMBL document CHEMBL1201862, “PubChem BioAssay data set” (2004)
Activity calls are given as the source filed them.

Legend:
Melanocortin receptor 4 = Melanocortin receptor 4 (Homo sapiens, UniProt P32245); assay type: functional, cell-based;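 further: Cell-based assay with luminescence read-out, confirmatory dose-response testing for agonist activity of biased ligands at MC4R; human U2OS cells with tagged receptor and beta-arrestin; potency of agonists that increase receptor coupling to beta-arrestin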
Chain of Melanocortin receptor 4 (P32245 whole entry): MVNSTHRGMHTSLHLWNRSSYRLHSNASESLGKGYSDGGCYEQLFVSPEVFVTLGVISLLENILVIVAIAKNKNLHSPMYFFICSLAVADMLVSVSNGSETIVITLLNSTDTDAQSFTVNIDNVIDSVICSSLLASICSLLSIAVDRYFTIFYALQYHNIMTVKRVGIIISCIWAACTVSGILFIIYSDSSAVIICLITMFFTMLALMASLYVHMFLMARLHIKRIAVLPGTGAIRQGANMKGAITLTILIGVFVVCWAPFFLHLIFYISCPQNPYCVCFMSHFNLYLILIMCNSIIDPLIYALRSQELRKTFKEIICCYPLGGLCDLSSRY

[1] = biological target: Ras and Rab interactor 1/Tyrosine-protein kinase ABL1 (Homo sapiens, UniProt P00519+Q13671); assay type: functional;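 further: biochemical TR-FRET dose-response test measuring inhibition of binding between Rin1 and Abl proteins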
Chain of Ras and Rab interactor 1/Tyrosine-protein kinase ABL1 (P00519 whole entry): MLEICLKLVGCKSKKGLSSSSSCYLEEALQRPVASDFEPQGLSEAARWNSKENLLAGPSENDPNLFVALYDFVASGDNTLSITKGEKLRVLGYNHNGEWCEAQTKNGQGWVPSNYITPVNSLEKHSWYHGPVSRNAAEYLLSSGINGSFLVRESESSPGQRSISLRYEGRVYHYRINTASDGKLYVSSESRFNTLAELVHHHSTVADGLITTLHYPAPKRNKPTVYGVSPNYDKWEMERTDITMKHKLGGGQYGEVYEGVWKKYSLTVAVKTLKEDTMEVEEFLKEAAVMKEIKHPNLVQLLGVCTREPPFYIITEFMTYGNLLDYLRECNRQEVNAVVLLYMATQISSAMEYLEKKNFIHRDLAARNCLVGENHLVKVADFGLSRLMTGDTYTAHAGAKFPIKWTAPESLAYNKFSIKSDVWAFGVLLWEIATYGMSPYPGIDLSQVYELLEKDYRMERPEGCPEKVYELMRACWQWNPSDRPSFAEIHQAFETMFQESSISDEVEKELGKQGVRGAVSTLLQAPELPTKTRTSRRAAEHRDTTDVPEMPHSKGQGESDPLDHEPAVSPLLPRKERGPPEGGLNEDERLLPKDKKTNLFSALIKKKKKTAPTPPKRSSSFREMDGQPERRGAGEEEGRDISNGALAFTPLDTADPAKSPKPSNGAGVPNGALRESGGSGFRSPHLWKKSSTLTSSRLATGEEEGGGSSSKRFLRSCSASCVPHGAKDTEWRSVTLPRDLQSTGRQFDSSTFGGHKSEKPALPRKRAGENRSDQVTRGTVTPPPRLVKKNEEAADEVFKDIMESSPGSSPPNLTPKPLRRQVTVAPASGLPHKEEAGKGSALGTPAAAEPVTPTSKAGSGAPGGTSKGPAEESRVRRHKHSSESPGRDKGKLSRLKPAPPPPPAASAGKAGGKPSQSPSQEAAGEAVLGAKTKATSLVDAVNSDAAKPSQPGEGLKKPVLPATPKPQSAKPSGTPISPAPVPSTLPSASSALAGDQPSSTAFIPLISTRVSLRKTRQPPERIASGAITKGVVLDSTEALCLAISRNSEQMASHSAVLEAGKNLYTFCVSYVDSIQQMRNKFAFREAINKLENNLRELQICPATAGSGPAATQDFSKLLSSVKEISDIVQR
Chain of Ras and Rab interactor 1/Tyrosine-protein kinase ABL1 (Q13671 whole entry): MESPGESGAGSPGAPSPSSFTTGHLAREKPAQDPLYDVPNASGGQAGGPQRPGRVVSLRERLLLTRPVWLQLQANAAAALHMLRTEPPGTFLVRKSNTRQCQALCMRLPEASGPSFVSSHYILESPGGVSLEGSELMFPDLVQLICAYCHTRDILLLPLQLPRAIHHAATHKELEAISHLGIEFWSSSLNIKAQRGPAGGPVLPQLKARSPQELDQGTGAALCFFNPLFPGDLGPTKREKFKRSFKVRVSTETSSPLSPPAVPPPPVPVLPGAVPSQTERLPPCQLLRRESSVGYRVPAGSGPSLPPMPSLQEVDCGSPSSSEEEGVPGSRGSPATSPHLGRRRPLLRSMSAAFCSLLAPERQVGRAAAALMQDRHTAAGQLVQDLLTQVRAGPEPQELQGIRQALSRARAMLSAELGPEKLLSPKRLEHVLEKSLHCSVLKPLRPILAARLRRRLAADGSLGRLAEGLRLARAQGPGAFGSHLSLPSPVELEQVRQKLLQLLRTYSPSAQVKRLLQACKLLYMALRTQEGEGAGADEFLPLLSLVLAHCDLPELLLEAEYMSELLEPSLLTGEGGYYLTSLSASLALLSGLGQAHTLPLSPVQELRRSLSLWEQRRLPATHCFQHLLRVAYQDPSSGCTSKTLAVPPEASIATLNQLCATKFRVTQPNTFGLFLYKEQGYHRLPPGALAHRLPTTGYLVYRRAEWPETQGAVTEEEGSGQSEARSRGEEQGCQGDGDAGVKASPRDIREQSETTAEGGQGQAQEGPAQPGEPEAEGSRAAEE

[2] = biological target: Tyrosine-protein phosphatase non-receptor type 5 (Homo sapiens, UniProt P54829); assay: PTPN5 enzyme inhibition – biochemical, fluorescence intensity, uHTS hits, confirmation (AID 602372); assay type: functional; conditions: read-out: IC50_Mean
Streptokinase A = biological target: T1, Streptokinase A (Streptococcus pyogenes serotype M1, UniProt P10520); assay: viability-normalized secreted streptokinase activity reduction – plasminogen activation absorbance, OD405, dose response (AID 1914); assay type: functional, Streptococcus pyogenes M1 GAS;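 further: secreted streptokinase activity via plasminogen activation per viability signal from cell pellet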
T1 sequence (P10520 whole entry): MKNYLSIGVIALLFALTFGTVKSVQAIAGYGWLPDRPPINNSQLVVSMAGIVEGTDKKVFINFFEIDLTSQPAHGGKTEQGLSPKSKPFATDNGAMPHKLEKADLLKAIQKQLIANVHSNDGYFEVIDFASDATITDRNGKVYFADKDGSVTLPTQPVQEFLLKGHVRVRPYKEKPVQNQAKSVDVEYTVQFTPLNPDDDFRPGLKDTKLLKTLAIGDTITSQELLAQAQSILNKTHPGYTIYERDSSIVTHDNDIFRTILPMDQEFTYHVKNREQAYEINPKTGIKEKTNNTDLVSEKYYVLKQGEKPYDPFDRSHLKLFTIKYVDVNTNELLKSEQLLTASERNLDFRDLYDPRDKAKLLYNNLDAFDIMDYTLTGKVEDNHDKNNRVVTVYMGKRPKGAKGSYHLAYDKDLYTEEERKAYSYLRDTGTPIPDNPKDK

[3] = biological target: Tyrosine-protein phosphatase non-receptor type 11 (Homo sapiens, UniProt Q06124); assay: PTPN11 enzyme inhibitors – biochemical, selectivity assay for STEP inhibitor project, dose response (AID 602367); assay type: functional; conditions: read-out: IC50_Mean
[4] = biological target: Dual specificity protein phosphatase 3 (Homo sapiens, UniProt P51452); assay: VHR phosphatase inhibition, dose response, selectivity assay for STEP inhibitor project, biochemical (AID 602374); assay type: functional; conditions: read-out: IC50_Mean
Chain of Dual specificity protein phosphatase 3 (P51452 whole entry): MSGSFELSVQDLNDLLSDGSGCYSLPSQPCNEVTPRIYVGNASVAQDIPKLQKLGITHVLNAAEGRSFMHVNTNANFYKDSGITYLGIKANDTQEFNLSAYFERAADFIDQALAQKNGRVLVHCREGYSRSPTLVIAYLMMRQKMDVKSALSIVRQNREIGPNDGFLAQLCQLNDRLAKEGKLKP

[5] = Trypanosoma cruzi growth suppression in host cells – NIH3T3 host cells, beta-gal luminescence, confirmation (AID 2044); assay type: functional, cell-based;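 further: intracellular parasites grown in NIH/3T3 mouse fibroblasts as host cells; luminescent beta-galactosidase reporter signal from transgenic T. cruzi replicating inside host cells; inhibitors lower the luminescence signal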
Streptococcus = assay: GAS UMAA2166 growth inhibition – luminescence, BacTiterGlo, counter-screen for streptokinase expression inhibitor project, dose response (AID 1915); assay type: functional, organism-based;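 further: potency for reduction of bacterial viability or growth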
[6] = NIH3T3 cell viability loss – ATP luminescence, mouse fibroblasts, counter-screen, dose response (AID 2010); assay type: functional, cell-based;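 further: cells exposed to compound for about 90 hours before reading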
[7] = test system: Streptococcus sp. 'group A'; assay: Streptococcus pyogenes SK(-)GAS viability under kanamycin – luminescence, BacTiterGlo, confirmation, counter-screen for streptokinase expression inhibitor project, dose response (AID 1900); assay type: functional, organism-based
[8] = biological target: Benomyl/methotrexate resistance protein (Candida albicans, UniProt P28873); assay: Candida albicans Mdr1 pump inhibition curves – singleplex, Cherry Pick1 hits, dose response (AID 588608); assay type: functional
[9] = Counterscreen for antagonists of the orexin 1 receptor (OX1R; HCRTR1): Fluorescence-based cell-based high throughput dose response assay to identify antagonists of the parental CHO cell line. [Related pubchem assays (depositor defined):AID434989, AID435008, AID463079, AID485270, AID492963, AID492964, AID492965, AID493232, AID504699, AID504701]; assay type: functional
CHO-K1 = assay: Counterscreen for antagonists of the orexin 1 receptor (OX1R; HCRTR1): Homogeneous time resolved fluorescence (HTRF)-based cell-based dose response assay to identify antagonists of the parental CHO-K1 cell line. [Related pubchem assays (depositor defined):AID434989, AID435008, AID463079, AID485270, AID492963, AID492964, AID492965, AID493232, AID504699, AID504701]; assay type: functional; conditions: Cricetulus griseus;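 further: potency for inhibition of ATP-stimulated IP1 production as antagonists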
Orexin receptor type 2 [10] = biological target: T2, Orexin receptor type 2 (Homo sapiens, UniProt O43614); assay: Counterscreen assay for antagonists of the orexin 1 receptor (OX1R; HCRTR1): Fluorescence-based cell-based dose response assay for antagonists of the orexin 2 receptor (OX2R; HCRTR2), run by assay provider.; assay type: functional
T2 sequence (O43614 whole entry): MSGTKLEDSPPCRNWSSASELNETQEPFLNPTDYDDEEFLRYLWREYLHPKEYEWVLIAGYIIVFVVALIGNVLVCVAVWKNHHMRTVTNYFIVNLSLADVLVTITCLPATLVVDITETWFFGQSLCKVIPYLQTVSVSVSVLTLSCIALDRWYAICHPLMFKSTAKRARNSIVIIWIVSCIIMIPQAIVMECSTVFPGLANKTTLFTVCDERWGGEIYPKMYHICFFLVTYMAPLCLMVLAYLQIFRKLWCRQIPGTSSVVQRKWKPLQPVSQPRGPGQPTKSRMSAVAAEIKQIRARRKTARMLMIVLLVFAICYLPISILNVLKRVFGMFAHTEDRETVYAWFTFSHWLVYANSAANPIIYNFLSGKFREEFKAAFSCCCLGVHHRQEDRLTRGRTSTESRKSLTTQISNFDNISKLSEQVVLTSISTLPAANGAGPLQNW

[11] = biological target: T3, Orexin/Hypocretin receptor type 1 (Homo sapiens, UniProt O43613); assay: Homogeneous Time Resolved Fluorescence (HTRF)-based cell-based high throughput dose response assay for antagonists of the orexin 1 receptor (OX1R; HCRTR1). [Related pubchem assays (depositor defined):AID434989, AID435008, AID463079, AID485270, AID492963, AID492964, AID492965, AID493232, AID504717, AID504718]; assay type: functional
T3 sequence (O43613 whole entry): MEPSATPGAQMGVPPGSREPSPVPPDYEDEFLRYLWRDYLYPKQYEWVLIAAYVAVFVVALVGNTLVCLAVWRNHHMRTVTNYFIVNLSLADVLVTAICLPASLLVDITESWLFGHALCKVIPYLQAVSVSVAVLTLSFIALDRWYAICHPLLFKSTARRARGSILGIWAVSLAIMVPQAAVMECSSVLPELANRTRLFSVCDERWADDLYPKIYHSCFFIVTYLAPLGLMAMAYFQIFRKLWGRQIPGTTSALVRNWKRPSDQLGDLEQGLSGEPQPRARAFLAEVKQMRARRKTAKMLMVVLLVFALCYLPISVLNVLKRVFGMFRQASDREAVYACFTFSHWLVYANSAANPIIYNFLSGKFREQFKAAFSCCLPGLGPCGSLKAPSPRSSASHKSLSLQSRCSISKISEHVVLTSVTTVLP

Orexin receptor type 2 [12] = biological target: T2, Orexin receptor type 2; assay: Counterscreen assay for antagonists of the orexin 1 receptor (OX1R; HCRTR1): Homogeneous Time Resolved Fluorescence (HTRF)-based cell-based dose response assay for antagonists of the orexin 2 receptor (OX2R; HCRTR2), run by assay provider.; assay type: functional
[13] = biological target: T3, Orexin/Hypocretin receptor type 1; assay: Fluorescence-based cell-based high throughput dose response assay for antagonists of the orexin 1 receptor (OX1R; HCRTR1). [Related pubchem assays (depositor defined):AID434989, AID435008, AID463079, AID485270, AID492963, AID492964, AID492965, AID493232, AID504717, AID504718]; assay type: functional
[14] = biological target: Mitochondrial peptide methionine sulfoxide reductase (Bos taurus, UniProt P54149); assay type: functional;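 further: absorbance read-out, biochemical high-throughput dose-response screen for MsrA inhibitors, confirmatory; recombinant bovine MsrA coupled to E. coli TrxB with NADPH and selenocystamine; potency is for inhibitors of MsrA activity on DMSO substrate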
[15] = HIV-1 Vif–A3G interaction blockers – biochemical, TR-FRET, GST-Vif 1-94, biotin-A3G peptide, dose response retest, primary screen (AID 1117319); assay type: functional;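 further: TR-FRET signal of purified GST-Vif binding a biotinylated A3G peptide; inhibitors lower the FRET signal by blocking Vif and A3G binding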
[16] = biological target: T4, Neuropeptides B/W receptor type 1 (Homo sapiens, UniProt P48145); assay: human NPBW1 receptor blockade, IC50 – cell-based, fluorescence, dose response, set 6, late-stage follow-up (AID 588583); assay type: functional
T4 sequence (P48145 whole entry): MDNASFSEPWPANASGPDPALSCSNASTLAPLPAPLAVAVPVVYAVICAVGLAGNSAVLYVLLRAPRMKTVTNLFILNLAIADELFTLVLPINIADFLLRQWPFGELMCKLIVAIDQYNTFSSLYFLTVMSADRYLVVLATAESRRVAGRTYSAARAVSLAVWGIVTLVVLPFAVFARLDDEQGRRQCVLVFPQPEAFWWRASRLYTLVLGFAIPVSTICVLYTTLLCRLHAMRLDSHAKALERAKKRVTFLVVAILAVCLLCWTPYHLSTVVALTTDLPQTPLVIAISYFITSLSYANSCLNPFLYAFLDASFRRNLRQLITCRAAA

[17] = biological target: Melanin-concentrating hormone receptor 1 (Homo sapiens, UniProt Q99705); assay: Late-stage fluorescence-based counterscreen for antagonists of the G-protein coupled receptor 7 (GPR7): cell-based dose response assay to identify antagonists of the melanin-concentrating hormone receptor 1 (MCHR1) Set 6.; assay type: functional
Chain of Melanin-concentrating hormone receptor 1 (Q99705 whole entry): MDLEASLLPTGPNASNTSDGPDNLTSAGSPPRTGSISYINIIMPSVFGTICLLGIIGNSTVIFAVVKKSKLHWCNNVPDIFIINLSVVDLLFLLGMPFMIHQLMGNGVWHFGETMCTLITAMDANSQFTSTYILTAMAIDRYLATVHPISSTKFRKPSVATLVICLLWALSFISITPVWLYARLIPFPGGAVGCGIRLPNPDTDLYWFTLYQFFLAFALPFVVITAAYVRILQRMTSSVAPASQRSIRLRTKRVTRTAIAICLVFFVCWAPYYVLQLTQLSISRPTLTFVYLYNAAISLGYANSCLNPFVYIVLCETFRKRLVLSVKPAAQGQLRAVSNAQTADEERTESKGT

[18] = biological target: Potassium voltage-gated channel subfamily KQT member 2 (Rattus norvegicus, UniProt O88943); assay: blockers of KCNQ2 channel current – cell-based, automated electrophysiology, set II, rat KCNQ2, dose response (AID 588637); assay type: functional
Chain of Potassium voltage-gated channel subfamily KQT member 2 (O88943 whole entry): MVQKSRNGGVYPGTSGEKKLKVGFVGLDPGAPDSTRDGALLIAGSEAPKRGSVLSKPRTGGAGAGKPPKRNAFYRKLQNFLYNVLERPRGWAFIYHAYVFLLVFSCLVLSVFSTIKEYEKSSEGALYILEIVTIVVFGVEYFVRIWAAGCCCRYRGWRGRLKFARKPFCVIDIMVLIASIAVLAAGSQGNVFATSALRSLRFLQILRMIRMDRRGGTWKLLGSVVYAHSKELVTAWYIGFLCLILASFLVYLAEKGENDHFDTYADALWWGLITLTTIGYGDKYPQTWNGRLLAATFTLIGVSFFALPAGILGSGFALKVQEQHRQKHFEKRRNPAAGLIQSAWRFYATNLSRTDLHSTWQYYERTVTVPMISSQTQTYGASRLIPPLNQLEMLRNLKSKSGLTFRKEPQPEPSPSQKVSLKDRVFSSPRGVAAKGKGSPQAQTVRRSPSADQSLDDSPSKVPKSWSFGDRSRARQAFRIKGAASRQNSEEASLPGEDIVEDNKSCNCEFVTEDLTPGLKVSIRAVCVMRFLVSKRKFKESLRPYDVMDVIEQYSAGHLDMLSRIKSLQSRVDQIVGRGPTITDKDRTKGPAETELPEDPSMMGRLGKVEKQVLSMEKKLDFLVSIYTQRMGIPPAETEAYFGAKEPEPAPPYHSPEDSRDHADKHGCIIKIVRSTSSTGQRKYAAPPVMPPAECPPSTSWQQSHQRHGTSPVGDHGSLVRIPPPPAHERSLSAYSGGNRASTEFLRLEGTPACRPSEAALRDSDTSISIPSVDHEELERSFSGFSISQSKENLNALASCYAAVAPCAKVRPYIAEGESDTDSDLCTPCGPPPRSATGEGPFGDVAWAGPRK

Aurora kinase B = Aurora kinase B (Homo sapiens, UniProt Q96GD4); assay type: functional
[19] = fluconazole-exposed Candida albicans growth modulators – fluorescence, retest, confirmation (AID 2467); assay type: functional, cell-based
[20] = NIH-3T3 fibroblast cytotoxicity, dose response, cytotoxicity control, cell-based, fluorescence, Alamar Blue, secondary assay (AID 2327); assay type: functional;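 further: NIH-3T3 mouse fibroblasts cultured with fluconazole at 8 µg/mL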
[21] = luciferase reporter signal suppression in cells – H4 neuroglioma cells, luminescence, dose response (AID 1990); assay type: functional, cell-based
INS1 = assay: INS-1E survival protection against cytokine death – cell-based, luminescence, retest, dose response (AID 449756); assay type: functional; conditions: Rattus norvegicus;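 further: cell death triggered by IL-1 beta plus TNF-alpha plus IFN-gamma mixture; protective hits raise ATP signal compared with cytokine alone wells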
[22] = alpha-synuclein stem-loop luciferase translation blockers – H4 neuroglioma cells, luminescence, confirmation (AID 1988); assay type: functional, cell-based
[23] = Luminescence Cell-Based Dose Response HTS to Identify Inhibitors of 5'UTR Stem-Loop Driven Prion Protein mRNA Translation in H4 Neuroglioblastoma Cells. [Related pubchem assays: 1827 (Project Summary), 1813 (Primary HTS)]; assay type: functional
[24] = biological target: Serine/threonine-protein phosphatase (Candida dubliniensis (strain CD36 / CBS 7987 / NCPF 3949 / NRRLY-17841) (Yeast), UniProt B9W6M3); assay: blockers of CaCl2-induced CDRE-lacZ signaling – S. cerevisiae, luminescence, secondary, dose response (AID 2388); assay type: functional, cell-based;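 further: yeast reporter cells carrying a calcineurin-responsive lacZ construct stimulated with calcium chloride; luminescent beta-galactosidase reporter signal in whole cells rather than isolated phosphatase activity; potency for inhibition where a drop in reporter signal means calcineurin blockade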
Chain of Serine/threonine-protein phosphatase (B9W6M3 whole entry): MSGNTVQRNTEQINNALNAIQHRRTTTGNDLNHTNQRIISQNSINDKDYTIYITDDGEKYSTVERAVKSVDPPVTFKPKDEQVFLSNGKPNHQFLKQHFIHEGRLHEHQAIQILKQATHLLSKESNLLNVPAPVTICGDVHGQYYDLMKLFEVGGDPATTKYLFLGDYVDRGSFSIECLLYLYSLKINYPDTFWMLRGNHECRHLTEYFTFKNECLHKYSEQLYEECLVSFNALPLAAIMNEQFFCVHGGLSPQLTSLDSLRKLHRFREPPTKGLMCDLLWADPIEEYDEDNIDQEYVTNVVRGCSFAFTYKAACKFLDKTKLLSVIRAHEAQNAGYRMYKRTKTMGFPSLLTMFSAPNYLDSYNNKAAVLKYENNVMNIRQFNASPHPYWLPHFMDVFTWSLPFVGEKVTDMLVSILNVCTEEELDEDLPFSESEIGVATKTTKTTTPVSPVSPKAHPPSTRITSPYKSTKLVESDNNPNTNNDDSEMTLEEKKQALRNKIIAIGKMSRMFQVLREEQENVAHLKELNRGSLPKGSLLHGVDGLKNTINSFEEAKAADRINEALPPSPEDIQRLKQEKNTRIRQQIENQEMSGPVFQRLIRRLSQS

[25] = biological target: ATP-dependent molecular chaperone HSP82 (Candida albicans (strain WO-1) (Yeast), UniProt C4YTQ8); assay: steroid-induced GRE reporter decrease in yeast – S. cerevisiae, luminescence, Hsp90 inhibitor project, dose response (AID 2400); assay type: functional, cell-based;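 further: beta-galactosidase luminescence from glucocorticoid response element reporter as proxy for Hsp90 function; inhibitor potency where signal loss means Hsp90 inhibition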
Chain of ATP-dependent molecular chaperone HSP82 (C4YTQ8 whole entry): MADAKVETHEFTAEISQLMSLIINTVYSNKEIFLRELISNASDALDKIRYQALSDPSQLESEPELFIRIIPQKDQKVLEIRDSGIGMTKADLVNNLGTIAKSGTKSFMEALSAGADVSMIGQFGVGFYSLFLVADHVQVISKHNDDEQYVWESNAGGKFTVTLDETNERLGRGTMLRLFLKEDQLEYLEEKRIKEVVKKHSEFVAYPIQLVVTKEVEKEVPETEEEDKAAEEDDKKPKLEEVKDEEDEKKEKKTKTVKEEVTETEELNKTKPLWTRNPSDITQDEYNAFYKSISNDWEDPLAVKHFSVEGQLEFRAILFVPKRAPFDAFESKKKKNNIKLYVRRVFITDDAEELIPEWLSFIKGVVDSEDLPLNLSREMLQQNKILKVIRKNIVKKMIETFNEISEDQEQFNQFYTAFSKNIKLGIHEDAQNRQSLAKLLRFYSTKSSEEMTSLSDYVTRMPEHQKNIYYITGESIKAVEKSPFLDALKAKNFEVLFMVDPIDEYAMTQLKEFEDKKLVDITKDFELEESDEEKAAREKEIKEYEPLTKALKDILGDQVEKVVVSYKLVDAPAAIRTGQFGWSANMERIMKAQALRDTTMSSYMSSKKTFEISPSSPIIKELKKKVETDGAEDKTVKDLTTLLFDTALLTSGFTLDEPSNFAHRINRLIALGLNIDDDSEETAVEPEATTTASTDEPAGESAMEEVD

[26] = mammalian cell viability loss – Alamar Blue, dry powder, cytotoxicity control for antifungal single agent project, dose response (AID 602188); assay type: functional, cell-based

CC(=O)Nc1cc(-c2ccc(CO)cc2)cn2c(-c3cccc(C(F)(F)F)c3)cnc12
EC50 (Melanocortin receptor 4): > 89.2 µM (inactive)

CCOC(=O)C1CCCN(C(=O)c2cn(C)c(=O)c3cc(OC)c(OC)cc23)C1 (centres undefined)
IC50 [1]: 14.1 µM (inactive)

SC1=NC(C23CC4CC(CC(C4)C2)C3)=CC(c2ccc3c(c2)OCO3)N1 (centres undefined)
IC50 [2]: 56.8 µM (inactive) | EC50 (Streptokinase A): 22.5 µM (active) | IC50 [3]: 15 µM (active) | IC50 [4]: 3.52 µM (active) | EC50 [5]: 2.44 µM (active) | EC50 (Streptococcus): > 150 µM (not active) | EC50 [6]: > 60 µM (not active) | EC50 [7]: 13.6 µM (active)

Cc1cccc(C)c1-n1c(SCC(=O)N2CC(=O)Nc3ccccc32)nc2ccccc2c1=O
EC50 [8]: 0.01 µM (active)

C=CCNC(=O)CCC(=O)NNc1nc2ccccc2c2nc(-c3ccccc3)nn12
IC50 [9]: > 49.7 µM (inactive) | IC50 (CHO-K1): > 66.2 µM (inactive) | IC50 (Orexin receptor type 2 [10]): > 88.8 µM (inactive) | IC50 [11]: 1.2 µM (active) | IC50 (Orexin receptor type 2 [12]): > 50 µM (inactive) | IC50 [13]: 6.87 µM (active)

NC(=S)N/N=C/c1ccc(-c2cccc([N+](=O)[O-])c2)o1
IC50 [14]: 155 µM (inactive) | IC50 [15]: > 100 µM (active)

COc1ccc(N(CC(=O)NCCc2cccc(C)c2)S(=O)(=O)c2c(C)noc2C)cc1
IC50 [9]: > 49.8 µM (inactive) | IC50 (CHO-K1): > 66.2 µM (inactive) | IC50 (Orexin receptor type 2 [10]): > 88.8 µM (inactive) | IC50 [11]: 0.653 µM (active) | IC50 (Orexin receptor type 2 [12]): 2.27 µM (active) | IC50 [13]: 7.14 µM (active)

N#CC(c1c(Cl)cnn(Cc2cccc3ccccc23)c1=O)c1csc2ccccc12 (centres undefined)
IC50 [16]: > 20 µM (inactive) | IC50 [17]: > 20 µM (inactive)

O=C(COc1ccc(Cl)cc1Cl)N(c1ccccn1)C1CCCCC1
IC50 [18]: 0.0699 µM (active)

CC(C#N)c1c(Cl)cnn(Cc2cccc3ccccc23)c1=O (centres undefined)
IC50 [16]: 3.1 µM (active) | IC50 [17]: 3.1 µM (active)

O=C(O)c1ccccc1Nc1ccnc(Nc2ccc(O)cc2)n1
Ki (Aurora kinase B): 0.002 µM (active)

CN1CCN(C(c2ccc(C(F)(F)F)cc2)c2ccc3cccnc3c2O)CC1 (centres undefined)
EC50 [19]: 0.676 µM (active) | EC50 [20]: > 150 µM (inconclusive) | EC50 [21]: 9.1 µM (active) | AC50 (INS1): 2.43 µM (active) | EC50 [22]: 8.06 µM (active) | EC50 [5]: 1.64 µM (active) | EC50 [23]: 10.3 µM (active) | EC50 (Streptococcus): 2.91 µM (active) | EC50 [24]: > 180 µM (inactive) | EC50 [25]: 14 µM (active) | EC50 [6]: 7.46 µM (active) | AC50 [26]: 6.73 µM (active) | EC50 [7]: 2.92 µM (active)
